The values below come from patent US7422854B1, “Cholesterol reduction signature” (priority 2002, dated 2008).

One assay relates to male Sprague-Dawley rats. Briefly: Cholesterol Lowering Index: total blood cholesterol (clinical chemistry) in treated versus vehicle-treated rats. The assay is classed as in vivo, rat. The note with it: male rats; for Chol index (fold reduction): vs vehicle. The source says: Compound dosing was based on the acute dose LD50s recorded in published reference or literature sources. […] The MTD (maximum tolerated dose) was then selected as the dose at which the animals […] 5-10% body weight during the 5-day range finding study. […] In addition, the clinical observations must show no or mild clinical signs during the whole of the range-finding study. At the next highest dose, signs and symptoms of adverse effects and exceeding those of the MTD should be seen to occur. Should these criteria not be met, the range-finding study is repeated using a modified dose range.
(§1) After determination of the MTD and FED for a compound, each compound was dissolved in a vehicle for administration on day 1 of the study (additional daily doses were stored as frozen aliquots from this initial formulation). Each compound was administered to three individual male Sprague-Dawley rats for each of the two doses (MTD and FED) for one of four different times (0.25 day, 1 day, 3 days, and 5 days), yielding a total of up to 24 animals per compound study. Vehicle choice was based on solubility of the compound, effect of food on adsorption, and the vehicles used in the literature reports examined during the FED selection investigations, described above. Generally, the route and vehicle in which the FED was defined are used. When there was a choice of routes and vehicles, oral routes were chosen over injection routes. Many compounds, especially oncolytics, are only administerable intravenously. In such cases, the compound was administered as an intravenous formulation into the tail vein. Orally administered compounds were given dissolved in either water, 1% carboxymethycellulose (CMC) or corn oil. Intravenously and intraperitoneally administered compounds were given in 0.9% saline. Subcutaneously administered compounds were given in corn oil. Animal body weights were determined at 1 day and, where appropriate, at 4 days, before necropsy, and clinical observations were made on a daily basis. Control animals were dosed with vehicle only. Three male animals were used for each dose and time combination used for the compound treatment.
(§2) Tissue harvest and handling: After the allocated treatment time, the tissues from the animals were harvested. […] All the tissues collected were divided to provide samples for histopathological analyses, and the remainder of each tissue was then snap-frozen. […] The following blood constituents were measured: Blood Urea Nitrogen (BUN), Creatinine (CRE), Glucose (GLU), Alanine Transaminase (ALT), Aspartate Aminotrans-ferase (AST), Alkaline Phosphatase (ALP), Total Bilirubin (TBI), Sodium (SOD), Potassium (POT), Chloride (CHL), Phosphorus (PHO), Total Protein (TPR), Albumin (ALB), Cholesterol (CHO), Creatine Phosphokinase (CPK), Lactate Dehydrogenase (LDH), Carbon Dioxide (CO2), Uric Acid (UA), and Lipase. […] The parameters were measured using a Baker 9000 blood cell analysis instrument according to the manufactures instructions. The following blood constituents were measured: Leukocyte count (WBC), Differential Leukocyte counts, Erythrocyte count (RBC), Hemoglobin concentration (HGB), Hematocrit (HCT), Mean Corpuscular Volume (MCV), Mean Corpuscular Hemoglobin (MCH), Mean Corpuscular Hemoglobin Concentration (MCC), Thrombocyte Count (PLC). Histopathology: Histopathological analyses of hematoxylin and eosin-stained tissue sections were performed and peer-reviewed by board-certified (Diplomate, American College of Veterinary Pathologists) veterinary pathologists. Preparation of Enriched mRNA: Punch Biopsies were Taken from the Frozen Tissues and were completely homogenized before being processed using the MagNA Pure robot. (Roche Diagnostics Corp., Indianapolis, Ind.) in combination with the MagNA Pure LC RNA Isolation kit II (Roche Diagnostics Corp).

The test system of a further assay is livers of rats. The experiment in a line: Signature Projection Score (SPS): match of liver gene expression to the Cholesterol Reduction Signature. Format: in vivo. To be noted: dose 10 (mg/ml), rat liver, maximum of training treatments = 100. The procedure: as §1
as §2, with “Corp). The amount of lysis buffer was adjusted to allow 1 ml per 50 mg for liver tissue, or 1 ml per 80 mg for all other tissues. After complete homogenization and before loading of the samples into the 32-well MagNA Pure plate, the samples were syringed 5-6 times using a 20-gauge 3-ml syringe to ensure a smooth solution for robotic processing. Tissue sample processing was performed in duplicate wells (loading 150 μl of homogenized sample and 150 μl of additional lysis buffere to each well) of the MagNA Pure LC, which is programmed to extract mRNA using oligo-dT selection technology into a final elution volume of 100 μl. Poly A(+) RNA sample concentration was performed using a standard ethanol precipitation protocol in the presence of glycogen (50 μg/ml).” for “Corp).”

The next assay concerns rat. To be noted: cited from earlier work.

On to `C#C[C@]1(O)CC[C@H]2[C@@H]3CCc4cc(O)ccc4[C@H]3CC[C@@]21C` [ETHINYLESTRADIOL, (17α)-norpregna-1,3,5(10)-trien-20-yne-3,17-diol], for which the “Cholesterol Index (fold reduction)” value in the assay with male Sprague-Dawley rats (Table 4, dose 10, time point 5 days) is 3.9 fold reduction. Besides, the “Chol index (fold reduction)” value in the assay on male Sprague-Dawley rats (dose 10, time 3 days) is 3.65 fold reduction; with male Sprague-Dawley rats (dose 10, time 5 days), 4.09 fold reduction. For the same compound, the SPS was determined as 50 in the assay on livers of rats (time point 1 day) and 76.2 in the assay on livers of rats (time point 5 days). Besides, in the assay on rat (rat, 4-7 daily dosing), the “reduction in total cholesterol” value is listed as 89%.

Take `O=C(c1ccc(OCCN2CCCCC2)cc1)c1c(-c2ccc(O)cc2)sc2cc(O)ccc12` [RALOXIFENE, [6-hydroxy-2-(4-hydroxyphenyl)-3-(4-[2-piperidin-1-yl)ethoxy]benzoyl)-benzo[b]thiene]: the “Chol index (fold reduction)” value in the assay with male Sprague-Dawley rats (dose 6.5, time 5 days) is reported as 2.61 fold reduction. In the assay with rat (ovarectomized female rats), the effect on cholesterol result was “lower cholesterol”.
